Assay results reported in patent US20100035756A1, “TRIAZOLOPHYRIDINE DERIVATIVES AS HERBICIDES” (SYNGENTA LIMITED, priority 2006, published 2010).
Values joined by “and” are separate entries in the source; they are usually repeats but may differ in a detail not shown here. Equal entries are not always repeated.

Assays:
[1] = system: Monocotyledonous and dicotyledonous test plants; experiment: Herbicidal action prior to emergence of the plants (pre-emergence action), Example B1; type: in vivo; conditions: preemergence application, 250 g/ha, evaluated after 4 weeks, 100%=total damage, 0%=no damage
Description: (§1) Monocotyledonous and dicotyledonous test plants are sown in seed trays in standard soil. Immediately after sowing, the test compounds are applied by spraying in the form of an aqueous suspension (prepared from a wettable powder (Example F3, b) according to WO 97/34485) or in the form of an emulsion (prepared from an emulsifiable concentrate (Example F1, c) according to WO 97/34485) in a concentration of 250 g/ha. The test plants are then grown in a greenhouse under optimum conditions. After a 4-week test period, the test is evaluated (100%=total damage to plant; 0%=no damage to plant; NC not evaluated).

[2] = system: Monocotyledonous and dicotyledonous test plants; experiment: Herbicidal action after emergence of the plants (post-emergence herbicidal action), Example B2; type: in vivo; conditions: postemergent application, 125 g/ha, 2- to 3-leaf stage, evaluated after 2-3 weeks, 100%=total damage
Description: as §1, with “When the test plants are at the 2- to 3-leaf stage,” for “Immediately after sowing,”, “125” for “250”, “grown on” for “grown”, “2- to 3-week” for “4-week”, “plant).” for “plant; NC not evaluated).”

| SMILES | herbicidal damage, ABUTH [1] [%] | herbicidal damage, AMARE [1] [%] | herbicidal damage, BRAPL [1] [%] | herbicidal damage, DIGSA [1] [%] | herbicidal damage, ECHCG [1] [%] | herbicidal damage, SETFA [1] [%] | herbicidal damage, STEME [1] [%] | herbicidal damage, VERPE [1] [%] | herbicidal damage, ABUTH [2] [%] | herbicidal damage, CHEAL [2] [%] | herbicidal damage, DIGSA [2] [%] | herbicidal damage, SETFA [2] [%] | herbicidal damage, SINAR [2] | herbicidal damage, VERPE [2] | herbicidal damage, XANST [2] | herbicidal damage, AMARE [2] |
| --- | --- | --- | --- | --- | --- | --- | --- | --- | --- | --- | --- | --- | --- | --- | --- | --- |
| CC(C)c1nc2c(C(=O)C3=C(O)C4CCC(C4)C3=O)ccc(C(F)(F)F)n2n1 (centres unmarked) [2.7] | 30 | 20 | 0 | 0 | 10 | 0 | 20 | 50 | 70 | 70 | 20 | 20 | 60% | 10% | 70% |  |
| Cc1nnc2c(C(=O)c3cnn(C)c3O)ccc(C(F)(F)F)n12 [Compound 6.3] | 10 | 70 |  | 30 | 30 | 0 | 40 | 80 | 60 | 70 | 80 | 60 | 80% | 80% | 80% | 90% |
| O=C1CCCC(O)=C1C(=O)c1ccc(C(F)(F)F)n2c(C3CC3)nnc12 [Compound 3.7] | 30 | 30 | 30 | 30 | 10 | 10 | 20 | 10 | 80 | 70 | 80 | 80 | 90% | 80% | 80% | 90% |
| COCc1nnc2c(C(=O)C3=C(O)C(C)(C)C(=O)C(C)(C)C3=O)ccc(C(F)(F)F)n12 [Compound 5.5] |  | 60 | 20 | 10 | 60 | 20 | 70 | 90 | 80 | 80 | 10 | 50 | 70% | 80% | 70% | 90% |
| O=C1CCCC(O)=C1C(=O)c1ccc(C(F)(F)F)n2c(Br)nnc12 [Compound 3.3] | 100 | 100 | 0 | 0 | 0 | 0 | 70 | 30 | 70 | 80 | 70 | 30 | 70% | 80% | 80% | 70% |
| CC(C)c1nnc2c(C(=O)C3=C(O)C(C)(C)C(=O)C(C)(C)C3=O)ccc(C(F)(F)F)n12 [Compound 5.4] | 100 | 100 | 100 | 60 | 40 | 30 | 100 | 100 | 80 | 80 |  | 50 | 70% and 80% | 80% and 90% | 70% and 90% | 90% and 70% |
| COCc1nnc2c(C(=O)C3=C(O)C4CCC(C4)C3=O)ccc(C(F)(F)F)n12 (centres unmarked) [Compound 1.16] | 100 | 100 | 70 | 80 | 100 | 80 | 100 | 50 | 80 | 80 | 70 | 70 | 80% | 80% | 80% | 90% |
| CC1(C)C(=O)C(C(=O)c2ccc(C(F)(F)F)n3c(-c4ccc(Cl)cc4)nnc23)=C(O)C(C)(C)C1=O [Compound 5.10] | 100 | 100 | 20 | 40 | 20 | 0 | 30 |  | 80 | 70 | 20 | 30 | 80% | 100% | 80% | 80% |
| Cc1nc2c(C(=O)C3=C(O)C(C)(C)C(=O)C(C)(C)C3=O)ccc(C(F)(F)F)n2n1 [13.3] | 100 | 90 | 80 | 80 | 30 | 70 | 100 | 100 | 80 | 50 | 60 | 70 | 80% | 70% | 80% | 70% |
| CCOc1nc2c(C(=O)C3=C(O)C4CCC(C4)C3=O)ccc(C(F)(F)F)n2n1 (centres unmarked) [2.209] | 100 | 100 | 90 | 80 | 70 | 80 | 70 | 30 | 80 | 80 | 80 | 80 | 80% | 80% | 80% | 90% |
| CCc1nnc2c(C(=O)C3=C(O)CCCC3=O)ccc(C(F)(F)F)n12 [Compound 3.5] | 100 | 70 | 80 | 90 | 70 | 90 | 60 | 30 | 90 | 90 | 80 | 70 | 80% | 90% | 80% | 100% |
| CC1(C)C(=O)C(C(=O)c2ccc(C(F)(F)F)n3c(Br)nnc23)=C(O)C(C)(C)C1=O [Compound 5.2] |  |  |  |  |  |  |  |  | 90 | 100 | 70 | 80 | 90% | 90% | 70% | 80% |
